“Also recorded” adds a separate entry of the source.
Tests used:
[1] = tested on: cells binding to D1(1-92)- or peptide-coated plates; assay: Panning / cell adhesion on coated plastic plates; type: cell-based; settings: for adhesion of mammalian cells to plastic plates coated with the substance: bacterial-grade plastic dishes coated with the substance; for inhibition of adhesion of cells onto D1(1-92): plates coated with D1(1-92)
Method: However, when those plates are coated with peptide 1 or 2 (or domain D1-1-92) or with recombinant forms of these peptides, they adhere because they express on their surface specific D1(1-92)-binding proteins. The adhesion can be measured.
As a positive control (i.e. to set up the technique), cells (106) exposing a high number of uPAR molecules are used and the panning is carried out on plates coated with a specific anti-uPAR antibody. As a negative control, the same cells but now not expressing uPAR are employed. The cells employed as negative controls are LB6, 32D, 3T3 fibroblasts, B-lymphoid cell lines and others. As positive controls, THP-1 cells, LB6/uPAR, 32D/uPAR and other expressing cell lines are employed.
For the screening assay, the same cells employed as negative controls (106) are used, and the plates are coated with domain D1(1-92) or domain D1(1-87) (control). The ability of the cells to bind to the plates is tested after 30-300 minutes incubation at 37° C. by microscopic inspection, or by staining the plates with Coomassie Blue. The same can be done using different techniques.
The ability of peptides 1- or 2-coated plates to specifically bind the THP-1 cells is the basis for the screening technique, as any compound capable of inhibiting this binding is a potential antiinflammatory agent, inhibiting chemotaxis. […] Such compounds, therefore, can be tested as inhibitors of chemotaxis, employing the methods outlined in examples 1-3. Coating can also be carried out with other recombinant forms of the SRSRY (SEQ ID NO:7) sequence in which the epitope is synthesized in fusion with other proteins. Suitable proteins are ferritin (Sidoli et al. (1993)), thioredoxin, GST, beta galactosidase, human serum albumin.

p56/p59hck = p56/p59hck immunoprecipitation and in vitro kinase assay after treatment of THP-1 cells; type: cell-based, human
Method: FIG. 5. In this figure, the stimulating effect of peptide 1 on the activity of Hck kinase of THP-1 cells is shown. THP-1 cells were metabolically labelled with [35S]-TransLabel, acid washed, and either mock-treated or treated with 0.1 nM peptide 1 (AVTYSRSRYLEC, (SEQ ID NO:1)) for the indicated time at 37° C. Radiolabelled cell lysates were immunoprecipitated (Resnati et al., 1996) using an affinity-purified rabbit polyclonal anti-p56/p59hck antibody.
(A) An aliquot from each immunoprecipitate was directly analyzed by SDS-PAGE to control that equal amount of p56/p59hck were present during in vitro kinase assay.
(B) The remainder of each immunoprecipitate was subjected to in vitro kinase assay in presence of […] of [g-32P]ATP (˜3000 Ci/mmol, Amersham) and […] rabbit muscle enolase for 5 minutes at room temperature. Eluates were thus analyzed by SDS-PAGE autobiography (7.5% acrylamide).
The mixture of chymotrypsin fragments of suPAR, like the uPA/uPAR interaction, induces chemotaxis by transiently activating the p56/p59hck protein kinase (Resnati et al., 1996). If human uPAR-related peptides containing the SRSRY (SEQ ID NO:7) motif induce a chemotactic response on THP-1 cells though the same mechanism exploited by the uPA/uPAR interaction (i.e. by binding to the unidentified adaptor), they should also activate p56/p59hck. THP-1 cells were metabolically labelled with [35S]-TransLabel, acid washed, and either mock-treated or treated with 0.1 nM peptide 1 (AVTYSRSRYLEC (SEQ ID NO:1)) for the indicated time at 37° C. Radiolabelled cell lysates were immunoprecipitated (Resnati et al.,1996) using an affinity-purified rabbit polyclonal anti-p56/p59hck antibody. An aliquot from each immunoprecipitate was directly analyzed by SDS-PAGE to control that equal amount of p56/p59hck were present during in vitro kinase assay (FIG. 5, panel A). The remainder of each immunoprecipitate was subjected to in vitro kinase assay in presence of […] of [g-32P)]ATP (˜3000 Ci/mmol, Amersham) and […] rabbit muscle enolase (substrate) for 5 minutes at room temperature. Eluates were thus analyzed by SDS-PAGE autobiography (7.5% acrylamide). […] The effect was very rapid, since p56/pS9hck stimulation was already- evident after 2 minutes, reached a maximum after […] and returned to the basal level 30 minutes after the addition of the peptide. No effect on p56/p59hck activity was observed when 0.1 nM of the corresponding scrambled peptide was used in the assay (data not shown). The time-course of the effect is identical to that observed with the addition of ATF or of chymotryptic uPAR fragments to THP-1 cells and reported previously (Resnati et al., 1996).

THP-1 cells = assay: Chemotaxis assay in modified Boyden chambers; type: cell-based, human; settings: for chemotactic response of THP-1 cells: Boyden chamber, 90 minutes, migration as percent of control, over the concentration range analyzed; for concentration giving maximal chemotactic response: THP-1 cells, FIG. 4 panels A and C; for concentration at which very potent chemotactic activity is seen: human THP-1 monocytoid cells (and murine LB6 fibroblastic cells)
Method: FIG. 3. […] For each set of experiments, migration toward the assay medium served as control (random cell migration) and is referred to as 100% migration. All experiments were performed in triplicate; the number of cells counted per high power field (ten fields for each condition) is expressed as percent of the control values. The proteins were purified as described in the Methods section. Data points represent the mean of three independent experiments (+SEM). The constructs used are depicted in FIG. 2.
Chemotaxis analysis were performed using modified Boyden chambers containing polyvinylpyrrolidone polycarbonate filters (13 mm diameter, […]) coated with collagen type I ([…] in PBS pH 7.4). The coated filters were washed with medium supplemented with 0.2% bovine serum albumin (BSA) and then placed in the Boyden apparatus. After acid wash, 2×10^5 THP-1 cells suspended in serum-free medium were added above the filter in the Boyden chamber. Purified mutants were diluted in serum-free medium at the indicated concentrations and added below the filter in the lower chamber. The chambers were incubated in a humidified incubafor at 37° C. in 5% CO2 in air for 90 minutes. Filters were removed, the upper surface scraped free of cells, fixed in methanol and stained with crystal violet. For each set of experiments, migration toward the assay medium served as control (random cell migration) and is referred to as 100% migration. All experiments were performed in triplicate; data are reported as number of cells counted for high power field (ten fields for each condition) and expressed as percentage of the control values. Data points represent the mean of three independent experiments (+SEM). When cells of the fibroblast-type or cancer cells were employed for the assay, the time required for migration was higher and the Boyden chamber were usually incubated overnight.

uPAR = uPAR (Homo sapiens, UniProt Q03405); settings: read-out: affinity of binding to uPAR; cited from earlier work
uPAR, sequence (Q03405 23-305): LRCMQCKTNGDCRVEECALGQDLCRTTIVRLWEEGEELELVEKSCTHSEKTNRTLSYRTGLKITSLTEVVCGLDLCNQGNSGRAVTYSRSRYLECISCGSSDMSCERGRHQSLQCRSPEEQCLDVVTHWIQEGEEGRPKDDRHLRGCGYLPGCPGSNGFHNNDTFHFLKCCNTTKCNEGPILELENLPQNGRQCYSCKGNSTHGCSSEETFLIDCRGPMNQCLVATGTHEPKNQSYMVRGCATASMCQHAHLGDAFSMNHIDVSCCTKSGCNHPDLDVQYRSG

| Substance | adhesion of mammalian cells to plastic plates coated with the substance [1] | inhibition of adhesion of cells onto D1(1-92) [1] | chemotactic response of THP-1 cells (THP-1 cells) | concentration giving maximal chemotactic response (THP-1 cells) [pM] | concentration at which very potent chemotactic activity is seen (THP-1 cells) [pM] | also measured |
| --- | --- | --- | --- | --- | --- | --- |
| AVTYSRSRYLEC [peptide 1] | adhere | inhibit adhesion | dose-dependent chemotactic effect; also recorded: very potent activity | 0.1 | 0.1 | time at which p56/p59hck stimulation is already evident (p56/p59hck; 0.1 nM peptide): 2 min; autophosphorylation of p56/p59hck (p56/p59hck; 0.1 nM peptide, 37° C.): increase; phosphorylation of the exogenous substrate (rabbit muscle enolase) (p56/p59hck; 0.1 nM peptide, 37° C.): increase; time of return of p56/p59hck activity to the basal level (p56/p59hck; 0.1 nM peptide, after addition of the peptide): 30 min |
| SRSRYLEC [peptide 2] | adhere | inhibit adhesion | dose-dependent chemotactic effect; also recorded: very potent activity | 0.1 | 0.1 | – |
| TLVEYYSRASCR [reference compound] | – | cannot | no effect on cell migration | – | – | effect on p56/p59hck activity (p56/p59hck; 0.1 nM (data not shown)): No effect; chemotactic response of THP-1 cells (THP-1 cells; listed as peptide-1 scrambled): do not |
| YTARLWGGTLLT [peptide 3, reference compound] | – | – | no effect on cell migration | – | – | – |
| vitronectin: protein bound by uPAR domains D2 and D3 | – | – | – | – | – | Kd (uPAR): 0.01 to 0.02 µM |
